Measured values reported in ChEMBL document CHEMBL1140774, “Sterol C24-methyltransferase: mechanistic studies of the C-methylation reaction with 24-fluorocycloartenol” (Bioorg Med Chem Lett, 2008).

System: Glycine max
Experiment: Activity of soybean recombinant SMT1

Km: 30 µM | kcat: 0.01 s⁻¹
Structure (SMILES): CC(C)=CCC[C@@H](C)[C@H]1CC[C@@]2(C)[C@@H]3CC[C@H]4C(C)(C)[C@@H](O)CC[C@@]45C[C@@]35CC[C@]12C
